From article PMC5218480 (PLoS ONE, 2017)

Tested on: MV-4-11 cells
Experiment: Gene expression microarray analysis (Affymetrix PrimeView) and GSEA
Assay type: cell-based, human
Parameters: RFU PODN (11730768_x_at) / Fold change /veh PODN (11730768_x_at) / RFU LINC00158 (11744669_a_at) / Fold change /veh LINC00158 (11744669_a_at) / RFU DUSP10 (11751237_a_at) / Fold change /veh DUSP10 (11751237_a_at) / RFU ID3 (11757404_x_at) / Fold change /veh ID3 (11757404_x_at) / RFU PLEKHG5 (11737974_s_at) / Fold change /veh PLEKHG5 (11737974_s_at) / RFU LRRC4B (11730491_at) / Fold change /veh LRRC4B (11730491_at) / RFU GIMAP4 (11747438_a_at) / Fold change /veh GIMAP4 (11747438_a_at) / RFU KRT8 (11758183_x_at) / Fold change /veh KRT8 (11758183_x_at) / RFU CNN1 (11734310_a_at) / Fold change /veh CNN1 (11734310_a_at) / RFU VPS37D (11726825_at) / Fold change /veh VPS37D (11726825_at) / RFU C10orf10 (11716522_x_at) / Fold change /veh C10orf10 (11716522_x_at) / RFU KIR2DL2 /// KIR2DL4 /// KIR2DL5A /// KIR2DL5B /// KIR2DS1 /// KIR2DS2 /// KIR2DS3 /// KIR2DS4 /// KIR3DL3 /// KIR3DL3 /// KIR3DS1 (11738374_at) / Fold change /veh KIR2DL2 /// KIR2DL4 /// KIR2DL5A /// KIR2DL5B /// KIR2DS1 /// KIR2DS2 /// KIR2DS3 /// KIR2DS4 /// KIR3DL3 /// KIR3DL3 /// KIR3DS1 (11738374_at) / RFU C1QL1 (11718748_at) / Fold change /veh C1QL1 (11718748_at) / RFU TMPRSS4 (11747572_a_at) / Fold change /veh TMPRSS4 (11747572_a_at) / RFU HAMP (11756126_x_at) / Fold change /veh HAMP (11756126_x_at) / RFU RNFT2 (11725882_a_at) / Fold change /veh RNFT2 (11725882_a_at) / RFU NR4A2 (11747474_a_at) / Fold change /veh NR4A2 (11747474_a_at) / RFU ABCC12 (11746883_a_at) / Fold change /veh ABCC12 (11746883_a_at) / RFU TMEM136 (11760407_x_at) / Fold change /veh TMEM136 (11760407_x_at) / RFU CLDN22 /// WWC2 (11732394_at) / Fold change /veh CLDN22 /// WWC2 (11732394_at) / RFU HLA-DPB1 (11760878_x_at) / Fold change /veh HLA-DPB1 (11760878_x_at) / RFU SPINT1 (11716480_a_at) / Fold change /veh SPINT1 (11716480_a_at) / RFU GAP43 (11754022_s_at) / Fold change /veh GAP43 (11754022_s_at) / RFU A4GNT (11735810_at) / Fold change /veh A4GNT (11735810_at) / RFU PRB3 (11715151_x_at) / Fold change /veh PRB3 (11715151_x_at) / RFU TUBB4B (11761932_at) / Fold change /veh TUBB4B (11761932_at) / RFU CAPN14 (11732068_a_at) / Fold change /veh CAPN14 (11732068_a_at) / RFU TMCC2 (11721928_a_at) / Fold change /veh TMCC2 (11721928_a_at) / RFU IRGQ (11745062_a_at) / Fold change /veh IRGQ (11745062_a_at) / RFU FAM174B (11720279_a_at) / Fold change /veh FAM174B (11720279_a_at) / RFU TMPRSS4 (11748680_a_at) / Fold change /veh TMPRSS4 (11748680_a_at) / RFU FAM212B (11763350_a_at) / Fold change /veh FAM212B (11763350_a_at) / RFU PLEKHG5 (11743358_a_at) / Fold change /veh PLEKHG5 (11743358_a_at) / RFU ZSCAN30 (11745921_a_at) / Fold change /veh ZSCAN30 (11745921_a_at) / RFU CMKLR1 (11741424_a_at) / Fold change /veh CMKLR1 (11741424_a_at) / RFU LOC101060620 /// MAPK8IP1 (11723275_at) / Fold change /veh LOC101060620 /// MAPK8IP1 (11723275_at) / RFU SPTSSB (11747773_x_at) / Fold change /veh SPTSSB (11747773_x_at) / RFU PRSS12 (11739890_at) / Fold change /veh PRSS12 (11739890_at) / RFU BIN1 (11741810_x_at) / Fold change /veh BIN1 (11741810_x_at) / RFU WNT11 (11732464_a_at) / Fold change /veh WNT11 (11732464_a_at) / RFU C10orf10 (11716521_a_at) / Fold change /veh C10orf10 (11716521_a_at) / RFU C5orf56 (11738089_at) / Fold change /veh C5orf56 (11738089_at) / RFU CYB561 (11721691_x_at) / Fold change /veh CYB561 (11721691_x_at) / RFU ANKRD19P (11752326_a_at) / Fold change /veh ANKRD19P (11752326_a_at) / RFU OR2T12 /// OR2T33 /// OR2T8 (11738714_s_at) / Fold change /veh OR2T12 /// OR2T33 /// OR2T8 (11738714_s_at) / RFU VCAN (11748164_a_at) / Fold change /veh VCAN (11748164_a_at) / RFU JSRP1 (11732532_at) / Fold change /veh JSRP1 (11732532_at) / RFU KRTAP10-11 (11738290_x_at) / Fold change /veh KRTAP10-11 (11738290_x_at) / RFU MYO3A (11730013_a_at) / Fold change /veh MYO3A (11730013_a_at) / RFU EBF3 (11725865_a_at) / Fold change /veh EBF3 (11725865_a_at) / RFU CAMK2N1 (11719241_x_at) / Fold change /veh CAMK2N1 (11719241_x_at) / RFU C5orf56 (11738088_a_at) / Fold change /veh C5orf56 (11738088_a_at) / RFU OLFML3 (11715873_a_at) / Fold change /veh OLFML3 (11715873_a_at) / RFU LOC100653217 /// NTM (11731650_a_at) / Fold change /veh LOC100653217 /// NTM (11731650_a_at) / RFU MAPK11 (11762145_a_at) / Fold change /veh MAPK11 (11762145_a_at) / RFU FIZ1 (11724087_x_at) / Fold change /veh FIZ1 (11724087_x_at) / RFU OASL (11726364_x_at) / Fold change /veh OASL (11726364_x_at) / RFU SOX15 (11748057_x_at) / Fold change /veh SOX15 (11748057_x_at) / RFU CD79A (11719716_a_at) / Fold change /veh CD79A (11719716_a_at) / RFU HIST1H1D (11736915_at) / Fold change /veh HIST1H1D (11736915_at) / RFU CASKIN2 (11723855_a_at) / Fold change /veh CASKIN2 (11723855_a_at) / RFU LOC730098 (11760151_x_at) / Fold change /veh LOC730098 (11760151_x_at) / RFU OR4N2 (11742367_at) / Fold change /veh OR4N2 (11742367_at) / RFU PRRT2 (11749266_a_at) / Fold change /veh PRRT2 (11749266_a_at) / RFU SNX32 (11753110_a_at) / Fold change /veh SNX32 (11753110_a_at) / RFU CDHR5 (11726645_a_at) / Fold change /veh CDHR5 (11726645_a_at) / RFU RCAN1 (11760418_a_at) / Fold change /veh RCAN1 (11760418_a_at) / RFU FAM167A (11723789_a_at) / Fold change /veh FAM167A (11723789_a_at) / RFU FAM26E (11764081_at) / Fold change /veh FAM26E (11764081_at) / RFU ISYNA1 (11749810_s_at) / Fold change /veh ISYNA1 (11749810_s_at) / RFU ACY1 (11761880_at) / Fold change /veh ACY1 (11761880_at) / RFU 11764098_at / Fold change /veh 11764098_at / RFU SAMD14 (11745864_x_at) / Fold change /veh SAMD14 (11745864_x_at) / RFU NPB (11741838_a_at) / Fold change /veh NPB (11741838_a_at) / RFU TMPRSS6 (11731388_a_at) / Fold change /veh TMPRSS6 (11731388_a_at) / RFU KRTAP10-2 (11738614_at) / Fold change /veh KRTAP10-2 (11738614_at) / RFU ARHGAP8 /// PRR5-ARHGAP8 (11727945_x_at) / Fold change /veh ARHGAP8 /// PRR5-ARHGAP8 (11727945_x_at) / RFU KRTAP5-7 /// NADSYN1 (11734609_at) / Fold change /veh KRTAP5-7 /// NADSYN1 (11734609_at) / RFU RASL12 (11751679_a_at) / Fold change /veh RASL12 (11751679_a_at) / RFU CDKN2B (11736163_a_at) / Fold change /veh CDKN2B (11736163_a_at) / RFU PRF1 (11729649_at) / Fold change /veh PRF1 (11729649_at) / RFU, ZNF638 /// ZNF638-IT1 / Fold change vs veh, ZNF638 /// ZNF638-IT1 / RFU, PANK3 / Fold change vs veh, PANK3 / RFU, SH3YL1 / Fold change vs veh, SH3YL1 / RFU, ZEB2 / Fold change vs veh, ZEB2 / RFU, NRIP1 / Fold change vs veh, NRIP1 / RFU, PTTG1IP / Fold change vs veh, PTTG1IP / RFU, CAPN2 / Fold change vs veh, CAPN2 / RFU, MED14 / Fold change vs veh, MED14 / RFU, SNORA58 / Fold change vs veh, SNORA58 / RFU, C1orf63 / Fold change vs veh, C1orf63 / RFU, LRRFIP1 / Fold change vs veh, LRRFIP1 / RFU, NDUFAF7 / Fold change vs veh, NDUFAF7 / RFU, SLC12A2 / Fold change vs veh, SLC12A2 / RFU, IBTK / Fold change vs veh, IBTK / RFU, ESF1 / Fold change vs veh, ESF1 / Fold change vs veh, TMEM50B / RFU, TAOK1 / Fold change vs veh, TAOK1 / RFU, ACBD3 / Fold change vs veh, ACBD3 / RFU, TMA16 / Fold change vs veh, TMA16 / RFU, RWDD3 / Fold change vs veh, RWDD3 / RFU, BCAT1 / Fold change vs veh, BCAT1 / RFU, EDEM3 / Fold change vs veh, EDEM3 / RFU, TMEM33 / Fold change vs veh, TMEM33 / RFU, WDR75 / Fold change vs veh, WDR75 / RFU, AHCTF1 / Fold change vs veh, AHCTF1 / RFU, TFRC / Fold change vs veh, TFRC / RFU, ZDHHC17 / Fold change vs veh, ZDHHC17 / RFU, NOM1 / Fold change vs veh, NOM1 / RFU, ARL8B / Fold change vs veh, ARL8B / RFU, ZBTB11 / Fold change vs veh, ZBTB11 / RFU, TAMM41 / Fold change vs veh, TAMM41 / RFU, KIAA1704 /// LOC100996395 / Fold change vs veh, KIAA1704 /// LOC100996395 / RFU, ING1 / Fold change vs veh, ING1 / RFU, TRMT61B / Fold change vs veh, TRMT61B / RFU, FUBP3 / Fold change vs veh, FUBP3 / RFU, TP53 / Fold change vs veh, TP53 / RFU, TNKS2 / Fold change vs veh, TNKS2 / RFU, ZFP14 / Fold change vs veh, ZFP14 / RFU, ACTR2 / Fold change vs veh, ACTR2 / RFU, PPP3R1 / Fold change vs veh, PPP3R1 / RFU, PIK3R1 / Fold change vs veh, PIK3R1 / RFU, HNRNPA1 / Fold change vs veh, HNRNPA1 / RFU, RNF170 / Fold change vs veh, RNF170 / RFU, ZNF28 / Fold change vs veh, ZNF28 / RFU, RNGTT / Fold change vs veh, RNGTT / RFU, OGT / Fold change vs veh, OGT / RFU, BRD1 / Fold change vs veh, BRD1 / RFU, MARS / Fold change vs veh, MARS / RFU, ZNF655 / Fold change vs veh, ZNF655 / RFU, FAHD1 / Fold change vs veh, FAHD1 / RFU, BDP1 / Fold change vs veh, BDP1 / RFU, LRRCC1 / Fold change vs veh, LRRCC1 / RFU, ARID1A / Fold change vs veh, ARID1A / RFU, ZNF146 / Fold change vs veh, ZNF146 / RFU, ZNF330 / Fold change vs veh, ZNF330 / RFU, GPN3 / Fold change vs veh, GPN3 / RFU, C9orf123 / Fold change vs veh, C9orf123 / RFU, N4BP2L2 / Fold change vs veh, N4BP2L2 / RFU, ARFIP1 / Fold change vs veh, ARFIP1 / RFU, FAM179B / Fold change vs veh, FAM179B / RFU, BCL10 / Fold change vs veh, BCL10 / RFU, UHRF1BP1L / Fold change vs veh, UHRF1BP1L / RFU, BET1 / Fold change vs veh, BET1 / RFU, CNOT2 / Fold change vs veh, CNOT2 / RFU, ZNF268 / Fold change vs veh, ZNF268 / Fold change vs veh, ZNF507 / RFU, DGCR2 / Fold change vs veh, DGCR2 / RFU, WDSUB1 / Fold change vs veh, WDSUB1 / Fold change vs veh, HSP90B1 /// MIR3652 / RFU, ADSS / Fold change vs veh, ADSS / RFU, GK / Fold change vs veh, GK / RFU, ZNF148 / Fold change vs veh, ZNF148 / RFU, TAF9 / Fold change vs veh, TAF9 / RFU, SLC1A5 / Fold change vs veh, SLC1A5 / RFU, SLMO2 / Fold change vs veh, SLMO2 / RFU, ABCC4 / Fold change vs veh, ABCC4 / RFU, LOC101060439 /// RAP1B / Fold change vs veh, LOC101060439 /// RAP1B / RFU, RFX7 / Fold change vs veh, RFX7 / RFU, GTPBP10 / Fold change vs veh, GTPBP10 / RFU, CNEP1R1 / Fold change vs veh, CNEP1R1 / RFU, BIVM-ERCC5 /// ERCC5 / Fold change vs veh, BIVM-ERCC5 /// ERCC5 / RFU, ILF3 / Fold change vs veh, ILF3 / RFU 11762660_at / Fold change /veh 11762660_at / RFU VCAN (11757783_s_at) / Fold change /veh VCAN (11757783_s_at) / RFU DDX43 (11728927_at) / Fold change /veh DDX43 (11728927_at) / RFU KRT8 (11758188_x_at) / Fold change /veh KRT8 (11758188_x_at) / RFU NKD1 (11759106_at) / Fold change /veh NKD1 (11759106_at) / RFU SRD5A1 (11742802_a_at) / Fold change /veh SRD5A1 (11742802_a_at) / RFU TPSAB1 /// TPSB2 (11721975_s_at) / Fold change /veh TPSAB1 /// TPSB2 (11721975_s_at) / RFU GSTM3 (11746129_a_at) / Fold change /veh GSTM3 (11746129_a_at) / RFU IL23R (11737362_x_at) / Fold change /veh IL23R (11737362_x_at) / RFU TMEM51 (11727254_a_at) / Fold change /veh TMEM51 (11727254_a_at) / RFU PIWIL2 (11732686_x_at) / Fold change /veh PIWIL2 (11732686_x_at) / RFU ORM1 (11744905_x_at) / Fold change /veh ORM1 (11744905_x_at) / RFU CCDC152 (11743942_at) / Fold change /veh CCDC152 (11743942_at) / RFU ECM1 (11717891_a_at) / Fold change /veh ECM1 (11717891_a_at) / RFU IL23R (11748794_a_at) / Fold change /veh IL23R (11748794_a_at) / RFU TNFAIP8L3 (11732012_x_at) / Fold change /veh TNFAIP8L3 (11732012_x_at) / RFU MBOAT4 (11741988_at) / Fold change /veh MBOAT4 (11741988_at) / RFU 11764193_at / Fold change /veh 11764193_at / RFU TMEM53 (11763286_at) / Fold change /veh TMEM53 (11763286_at) / RFU MAGEB2 (11727129_at) / Fold change /veh MAGEB2 (11727129_at) / RFU TMEM200A (11744735_a_at) / Fold change /veh TMEM200A (11744735_a_at) / RFU CCDC152 (11751479_a_at) / Fold change /veh CCDC152 (11751479_a_at) / RFU FAM211A (11726209_a_at) / Fold change /veh FAM211A (11726209_a_at) / RFU RGS16 (11746705_a_at) / Fold change /veh RGS16 (11746705_a_at) / RFU VCAN (11755009_s_at) / Fold change /veh VCAN (11755009_s_at) / RFU RHOB (11743442_s_at) / Fold change /veh RHOB (11743442_s_at) / RFU RGS16 (11720943_a_at) / Fold change /veh RGS16 (11720943_a_at) / RFU RGS16 (11720944_at) / Fold change /veh RGS16 (11720944_at) / RFU, VPS4B / Fold change vs veh, VPS4B / RFU, CREB1 / Fold change vs veh, CREB1 / RFU, DNAJC13 / Fold change vs veh, DNAJC13 / RFU, GNAQ / Fold change vs veh, GNAQ / RFU, CDK5R1 / Fold change vs veh, CDK5R1 / RFU, ZRANB3 / Fold change vs veh, ZRANB3 / RFU, CUL4A / Fold change vs veh, CUL4A / RFU, CCNY / Fold change vs veh, CCNY / RFU, UFL1 / Fold change vs veh, UFL1 / RFU, COG3 / Fold change vs veh, COG3 / RFU, DIAPH2 / Fold change vs veh, DIAPH2 / RFU, SKA2 / Fold change vs veh, SKA2 / RFU, AFF3 / Fold change vs veh, AFF3 / RFU, LMF1 / Fold change vs veh, LMF1 / RFU, IPO11 / Fold change vs veh, IPO11 / RFU, DFFB / Fold change vs veh, DFFB / RFU, FOXP1 / Fold change vs veh, FOXP1 / RFU, CARD8 / Fold change vs veh, CARD8 / RFU, STRN3 / Fold change vs veh, STRN3 / RFU, ADK / Fold change vs veh, ADK / RFU, RASSF2 / Fold change vs veh, RASSF2 / RFU, WIPF1 / Fold change vs veh, WIPF1 / RFU, LARP1B / Fold change vs veh, LARP1B / RFU, RASA1 / Fold change vs veh, RASA1 / RFU, RB1 / Fold change vs veh, RB1 / RFU, PPFIA1 / Fold change vs veh, PPFIA1 / RFU, MAT2A / Fold change vs veh, MAT2A / RFU, CCT5 / Fold change vs veh, CCT5 / RFU, WDR92 / Fold change vs veh, WDR92 / RFU, CUX1 / Fold change vs veh, CUX1 / RFU, TTC7A / Fold change vs veh, TTC7A / RFU, TMEM135 / Fold change vs veh, TMEM135 / RFU, DEPTOR / Fold change vs veh, DEPTOR / RFU, CPM / Fold change vs veh, CPM / RFU, DNAJB6 / Fold change vs veh, DNAJB6 / RFU, CACNA2D3 / Fold change vs veh, CACNA2D3 / RFU, DTX4 / Fold change vs veh, DTX4 / RFU, TFCP2 / Fold change vs veh, TFCP2 / RFU, GMCL1 /// GMCL1P1 / Fold change vs veh, GMCL1 /// GMCL1P1 / RFU, AEBP2 / Fold change vs veh, AEBP2 / RFU, SNHG1 /// SNORD22 /// SNORD25 /// SNORD26 /// SNORD27 /// SNORD28 /// SNORD29 /// SNORD31 / Fold change vs veh, SNHG1 /// SNORD22 /// SNORD25 /// SNORD26 /// SNORD27 /// SNORD28 /// SNORD29 /// SNORD31 / Fold change (Aza/veh), C12orf56 (ProbeSet 11735607_a_at) / Fold change (ACY-1035/veh), C12orf56 (ProbeSet 11735607_a_at) / Fold change (Aza/veh), FGFR1OP (ProbeSet 11751329_s_at) / Fold change (ACY-1035/veh), FGFR1OP (ProbeSet 11751329_s_at) / Fold change (Aza/veh), VPS36 (ProbeSet 11739960_a_at) / Fold change (ACY-1035/veh), VPS36 (ProbeSet 11739960_a_at) / RFU SYPL1 (11715823_x_at) / Fold change /veh SYPL1 (11715823_x_at) / RFU IGFBP7 (11715501_s_at) / Fold change /veh IGFBP7 (11715501_s_at) / RFU REEP3 (11722064_at) / Fold change /veh REEP3 (11722064_at) / RFU IGLL1 (11728026_x_at) / Fold change /veh IGLL1 (11728026_x_at): dose or concentration left out as unconfirmed
Settings: ProbeSet 11722463_a_at; LIST B

## Nc1ccc(-c2cccs2)cc1NC(=O)c1ccc2c(c1)cc(C1CC1)n2CCN1CCOCC1 [ACY-1035]
  Fold change vs veh, TNKS2: 0.96
